# Reference: patent US20070238700A1, “N-PHENYL-1,1,1-TRIFLUOROMETHANESULFONAMIDE HYDRAZONE DERIVATIVE COMPOUNDS AND THEIR USAGE IN CONTROLLING PARASITES” (priority 2006, published 2007)
# Read-outs that look alike come from different tables or passages of the source.
# Key:
# Ctenocephalides felis [1] = assay: Ctenocephalides felis adulticide assay: C. felis dose response (LC50)
# Text: c) Ctenocephalides felis Adulticide Assay: C. felis Dose Response
# The purpose of this example was to determine the LC50 when cat fleas were contacted with a glass surface treated with sample compounds or formulations prepared as described above. […] The test species was the cat flea (Ctenocephalides felis). The strain used was obtained from external suppliers as pupae and held in the laboratory under testing conditions until the adults had emerged. Fifteen (15) fleas were used in a minimum of four replicates for each dose level (total of 60 fleas per dose level). The insects were selected to be in the adult life stage, aged between 3 and 7 days post emergence.
# The compounds to be tested were dissolved in acetone just prior to testing. Samples of compounds were stored in a refrigerator (5±1° C.) unless otherwise specified. During the mortality testing, the temperature was maintained at 25±1° C. Humidity was maintained at 75±5%. The base (area=159 mm^2) of a 100 mL glass Erlenmeyer (conical) flask provided the treatment surface. Flasks were pretreated with Coatasil™ glass treatment to maximise bio-availability of test compounds by preventing them from binding to the glass surface.
# The base of the 100 mL Erlenmeyer flask was treated with 0.5 mL of test sample in acetone and gently swirled. This volume was sufficient to cover the base of the flask. Flasks were left to dry for 24 hours before flea exposure. Adult cat fleas were lightly anaesthetised by cooling and then placed into a sorting chamber, which allowed fleas to revive and jump into the Erlenmeyer flasks. Fifteen (15) adult cat fleas were collected in each flask. The top of the flasks were then covered in Parafilm™ and small holes made to allow gas exchange. A 0.5 mL volume of acetone was applied to the base of an Erlenmeyer flask and the testing proceeded in the same manner described above. Cat fleas in the treatment containers were held under testing conditions for 24 hours. Mortality resulting from the treatments was recorded at 8 and 24 hours.
# Rhipicephalus sanguineus [2] = assay: Rapid screening protocol for topical application on brown dog ticks (% mortality); conditions: data from laboratory 2
# How it was run: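 Mixed-sex unfed adult ticks each received 1 μL test sample in acetone on the abdomen at a single screening dose chosen above the reference LD90 (fipronil 10 μg/tick), with acetone-only controls; 4 replicates of 10 ticks. Held 24 h at 25±1 °C; ticks unresponsive to light touch over 1 min scored dead, pooled as % mortality.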
# Rhipicephalus sanguineus [3] = assay: Dose response protocol for topical application on brown dog ticks (LD50); conditions: 24 h mortality, probit analysis
# Procedure: e) Dose response protocol for topical application on brown dog ticks (Rhipicephalus sanguineus): The test determines the level of insecticidal activity of sample compounds or formulations when applied topically on brown dog ticks. Sample compounds were stored prior to use in a freezer (−5±1° C.), unless otherwise specified.
# • Mortality: A tick is defined as dead after it gives no apparent response when touched lightly or gently breathed upon, while observed for 30 seconds. • LD50 (Lethal Dose 50): The dose of a topically applied treatment at which 50% of the dog ticks are killed. • Reference compound: To assess an experimental compound for significant acaricidal activity a single dose level is chosen, which is based upon known results from previous experiments using a commercially available active i.e., a reference compound. The reference compound selected is one in common use, and one that has a similar mode of action against the Brown Dog Tick (i.e., the test species), • Recovery container: A recovery container consists of a 500 ml round plastic container measuring 115 mm diameter and 70 mm height, with a tight fitting lid that has 10 small (˜1 mm) holes inserted for air exchange. A 90 mm diameter piece of filter paper was placed on the bottom of the container and moistened with 1 mL of distilled water.
# Adult, mixed sex, Brown Dog Ticks (Rhipicephalus sanguineus) were reared as follows: (i) cultured, (ii) transferred unfed, to a testing laboratory, and (iii) then maintained under controlled conditions (i.e., temp. 18°±2° C., humidity 75±5% RH). The ticks used were selected for vigor prior to testing, i.e., capable of actively walking and responsive to being touched or gently breathed upon.
# During the testing, the temperature was maintained at 25±1° C. and the humidity was ambient. Seven dose levels (concentrations) of sample compound, in the form of serial dilutions in acetone, were derived from a pilot study and covered a range that produced very low to very high mortality. Groups of ten ticks were treated topically (on the abdomen) with 1 μL of a single dose level of the sample compound. Each test was replicated four times, i.e., employing a total of 40 ticks per dose level of each sample compound. As a control, ten ticks were treated with solvent only (acetone) for each test. Following the treatment, the ticks were held in recovery containers maintained under appropriate rearing conditions for 24 hours. Mortality resulting from the treatments was recorded at 24 hours. […] Press, London (1971).]
# Ctenocephalides felis [4] = system: Ctenocephalides felis
# How it was run: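 Adult cat fleas (3–7 days post-emergence), 15 per flask in ≥4 replicates, exposed to a dried acetone residue at 1.26 μg/cm^2 on a Coatasil-treated glass flask base. Held at 25±1° C, 75±5% humidity; mortality (immobile or unable to right) scored at 8, 24 and/or 48 h.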
compound,measurement,setting,value
CC(=NN(C)c1ccc(Cl)cc1)c1cc(Cl)ccc1NS(=O)(=O)C(F)(F)F [Compound 105],C. felis LC50,Ctenocephalides felis [1],3.0 ppm
same,R. sanguineus Mortality (%) 24 h,Rhipicephalus sanguineus [2],95%
same,R. sanguineus LD50,Rhipicephalus sanguineus [3],1.4 μg/tick
same,C. felis Mortality (%) 8 h,Ctenocephalides felis [4],42%
same,C. felis Mortality (%) 24 h,Ctenocephalides felis [4],100%
CC(=NN1CCCC1)c1cc(Cl)ccc1NS(=O)(=O)C(F)(F)F [Compound 116],C. felis LC50,Ctenocephalides felis [1],2.66 ppm
same,R. sanguineus Mortality (%) 24 h,Rhipicephalus sanguineus [2],93%
same,R. sanguineus LD50,Rhipicephalus sanguineus [3],0.74 μg/tick
same,C. felis Mortality (%) 8 h,Ctenocephalides felis [4],98%
same,C. felis Mortality (%) 24 h,Ctenocephalides felis [4],100%
CCOC(=O)N(CC)N=C(C)c1cc(Cl)ccc1NS(=O)(=O)C(F)(F)F [Compound 125],C. felis LC50,Ctenocephalides felis [1],3.62 ppm
same,R. sanguineus Mortality (%) 24 h,Rhipicephalus sanguineus [2],95%
same,R. sanguineus LD50,Rhipicephalus sanguineus [3],0.64 μg/tick
same,C. felis Mortality (%) 8 h,Ctenocephalides felis [4],82%
same,C. felis Mortality (%) 24 h,Ctenocephalides felis [4],100%
CCOC(=O)N(C)N=C(C)c1cc(Cl)ccc1NS(=O)(=O)C(F)(F)F [Compound 126],C. felis LC50,Ctenocephalides felis [1]; data from laboratory 1,1.84 ppm
same,R. sanguineus Mortality (%) 24 h,Rhipicephalus sanguineus [2],100%
same,R. sanguineus LD50,Rhipicephalus sanguineus [3],0.69 μg/tick
same,C. felis Mortality (%) 8 h,Ctenocephalides felis [4],55%
same,C. felis Mortality (%) 24 h,Ctenocephalides felis [4],97%
CCOC(=O)N(CC)N=C(CC)c1cc(Cl)ccc1NS(=O)(=O)C(F)(F)F [Compound 127],C. felis LC50,Ctenocephalides felis [1],1.22 ppm
same,R. sanguineus Mortality (%) 24 h,Rhipicephalus sanguineus [2],100%
same,R. sanguineus LD50,Rhipicephalus sanguineus [3],0.54 μg/tick
same,C. felis Mortality (%) 8 h,Ctenocephalides felis [4],100%
same,C. felis Mortality (%) 24 h,Ctenocephalides felis [4],100%
CCC(=NN1CCCCC1)c1cc(Cl)ccc1NS(=O)(=O)C(F)(F)F [Compound 129],C. felis LC50,Ctenocephalides felis [1],2.82 ppm
same,R. sanguineus Mortality (%) 24 h,Rhipicephalus sanguineus [2],98%
same,R. sanguineus LD50,Rhipicephalus sanguineus [3],0.52 μg/tick
same,C. felis Mortality (%) 8 h,Ctenocephalides felis [4],27%
same,C. felis Mortality (%) 24 h,Ctenocephalides felis [4],98%
CCC(=NN1CCCCC1)c1cc(Cl)ccc1NS(=O)(=O)C(F)(F)F [Compound 130],C. felis LC50,Ctenocephalides felis [1],2.36 ppm
same,R. sanguineus Mortality (%) 24 h,Rhipicephalus sanguineus [2],98%
same,R. sanguineus LD50,Rhipicephalus sanguineus [3],1.08 μg/tick
same,C. felis Mortality (%) 8 h,Ctenocephalides felis [4],34%
same,C. felis Mortality (%) 24 h,Ctenocephalides felis [4],91%
CCN(N=C(C)c1cc(Cl)ccc1NS(=O)(=O)C(F)(F)F)C(=O)OC [Compound 139],C. felis LC50,Ctenocephalides felis [1],5.14 ppm
same,R. sanguineus Mortality (%) 24 h,Rhipicephalus sanguineus [2],100%
same,R. sanguineus LD50,Rhipicephalus sanguineus [3],0.39 μg/tick
same,C. felis Mortality (%) 8 h,Ctenocephalides felis [4],97%
same,C. felis Mortality (%) 24 h,Ctenocephalides felis [4],100%
CCC(=NN(CC)C(=O)OC)c1cc(Cl)ccc1NS(=O)(=O)C(F)(F)F [Compound 140],C. felis LC50,Ctenocephalides felis [1],3.70 ppm
same,R. sanguineus Mortality (%) 24 h,Rhipicephalus sanguineus [2],100%
same,R. sanguineus LD50,Rhipicephalus sanguineus [3],0.28 μg/tick
same,C. felis Mortality (%) 8 h,Ctenocephalides felis [4],89%
same,C. felis Mortality (%) 24 h,Ctenocephalides felis [4],100%
CC(=NN(C)c1cccc(C(F)(F)F)c1)c1cc(Cl)ccc1NS(=O)(=O)C(F)(F)F [Compound 203],C. felis LC50,Ctenocephalides felis [1],1.30 ppm
same,R. sanguineus Mortality (%) 24 h,Rhipicephalus sanguineus [2],95%
same,R. sanguineus LD50,Rhipicephalus sanguineus [3],0.68 μg/tick
same,C. felis Mortality (%) 8 h,Ctenocephalides felis [4],11%
same,C. felis Mortality (%) 24 h,Ctenocephalides felis [4],98%
C/C(=N\N(C)C1CCCC1)c1cc(Cl)ccc1NS(=O)(=O)C(F)(F)F [Compound 211],C. felis LC50,Ctenocephalides felis [1],1.9 ppm
same,R. sanguineus Mortality (%) 24 h,Rhipicephalus sanguineus [2],98%
same,R. sanguineus LD50,Rhipicephalus sanguineus [3],1.01 μg/tick
same,C. felis Mortality (%) 8 h,Ctenocephalides felis [4],12%
same,C. felis Mortality (%) 24 h,Ctenocephalides felis [4],85%
C/C(=N\N(C)C1CCCCC1)c1cc(Cl)ccc1NS(=O)(=O)C(F)(F)F [Compound 215],C. felis LC50,Ctenocephalides felis [1],2.54 ppm
same,R. sanguineus Mortality (%) 24 h,Rhipicephalus sanguineus [2],73%
same,R. sanguineus LD50,Rhipicephalus sanguineus [3],1.29 μg/tick
same,C. felis Mortality (%) 8 h,Ctenocephalides felis [4],8%
same,C. felis Mortality (%) 24 h,Ctenocephalides felis [4],100%
